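1) Cells in 96-well plates. 2) Compound, 48 h, 5 concentrations. 3) Linear interpolation between surrounding doses. 4) Unreached endpoint = highest concentration. At the GI50, growth is halved.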 Calls of active or inactive are those of the source. Cut-off read from the data, not from the text of the source: active = GI50 up to about 1.1 µM and inactive = higher.
Key:
Test in all cases: NCI tumour cell line growth inhibition, 48 h
T47D = tested on: T47D
DLD-1 = tested on: DLD-1
EKVX = tested on: EKVX
KM12 = tested on: KM12
A549 = tested on: A549
COLO 205 = tested on: COLO 205
RXF 393 = tested on: RXF 393
CCRF-CEM = tested on: CCRF-CEM
SNB-19 = tested on: SNB-19
HOP-18 = tested on: HOP-18
NCI-H23 = tested on: NCI-H23
DMS-114 = tested on: DMS-114
HCT-116 = tested on: HCT-116
SK-MEL-5 = tested on: SK-MEL-5
PC-3 = tested on: PC-3
SF-295 = tested on: SF-295
UACC-257 = tested on: UACC-257
HCT-15 = tested on: HCT-15
SNB-78 = tested on: SNB-78
SNB-75 = tested on: SNB-75
UO-31 = tested on: UO-31
786-0 = tested on: 786-0
HL-60 = tested on: HL-60
SW-620 = tested on: SW-620
DU-145 = tested on: DU-145
MDA-MB-231 = tested on: MDA-MB-231
Hs-578T = tested on: Hs-578T
NCI/ADR-RES = tested on: NCI/ADR-RES
A498 = tested on: A498
TK-10 = tested on: TK-10
MDA-N = tested on: MDA-N
OVCAR-4 = tested on: OVCAR-4
U-251 = tested on: U-251
HT-29 = tested on: HT-29
OVCAR-5 = tested on: OVCAR-5
SF-268 = tested on: SF-268
K562 = tested on: K562
Malme-3M = tested on: Malme-3M
IGROV-1 = tested on: IGROV-1
MOLT-4 = tested on: MOLT-4
LXFL 529 = tested on: LXFL 529
KM-20L2 = tested on: KM-20L2
DMS-273 = tested on: DMS-273
CAKI-1 = tested on: CAKI-1
M19-MEL = tested on: M19-MEL
OVCAR-3 = tested on: OVCAR-3
SR = tested on: SR
SK-MEL-28 = tested on: SK-MEL-28
OVCAR-8 = tested on: OVCAR-8
HCC 2998 = tested on: HCC 2998
ACHN = tested on: ACHN
HOP-62 = tested on: HOP-62
NCI-H460 = tested on: NCI-H460
HOP-92 = tested on: HOP-92
SF-539 = tested on: SF-539
UACC-62 = tested on: UACC-62
MCF7 = tested on: MCF7
M14 = tested on: M14
SN12C = tested on: SN12C
SK-OV-3 = tested on: SK-OV-3
NCI-H522 = tested on: NCI-H522
SK-MEL-2 = tested on: SK-MEL-2
NCI-H226 = tested on: NCI-H226
MDA-MB-435 = tested on: MDA-MB-435
BT-549 = tested on: BT-549
LOX IMVI = tested on: LOX IMVI
RPMI-8226 = tested on: RPMI-8226
XF498 = tested on: XF498

Cc1cc2nc3ccc(N(C)C)cc3[s+]c2cc1N [TOLONIUM CHLORIDE]
GI50 (T47D): 5.2 µM (inactive) | GI50 (DLD-1): 6.38 µM (inactive) | GI50 (EKVX): 4.48 µM (inactive) | GI50 (KM12): 3.84 µM (inactive) | GI50 (A549): 3.22 µM (inactive) | GI50 (COLO 205): 2.97 µM (inactive) | GI50 (RXF 393): 7.52 µM (inactive) | GI50 (CCRF-CEM): 1.16 µM (inactive) | GI50 (SNB-19): 2.69 µM (inactive) | GI50 (HOP-18): 10.3 µM (inactive) | GI50 (NCI-H23): 2.21 µM (inactive) | GI50 (DMS-114): 0.867 µM (active) | GI50 (HCT-116): 1.75 µM (inactive) | GI50 (SK-MEL-5): 0.641 µM (active) | GI50 (PC-3): 1.58 µM (inactive) | GI50 (SF-295): 3.62 µM (inactive) | GI50 (UACC-257): 1.37 µM (inactive) | GI50 (HCT-15): 2.99 µM | GI50 (SNB-78): 12.6 µM (inactive) | GI50 (SNB-75): 11 µM (inactive) | GI50 (UO-31): 11 µM (inactive) | GI50 (786-0): 5.22 µM (inactive) | GI50 (HL-60): 0.383 µM (active) | GI50 (SW-620): 2.86 µM (inactive) | GI50 (DU-145): 15.7 µM (inactive) | GI50 (MDA-MB-231): 2.41 µM (inactive) | GI50 (Hs-578T): 5.12 µM (inactive) | GI50 (NCI/ADR-RES): 2.26 µM (inactive) | GI50 (A498): 21.3 µM (inactive) | GI50 (TK-10): 19.2 µM (inactive) | GI50 (MDA-N): 1.09 µM (active) | GI50 (OVCAR-4): 3.35 µM (inactive) | GI50 (U-251): 3.17 µM (inactive) | GI50 (HT-29): 7.93 µM (inactive) | GI50 (OVCAR-5): 9.73 µM (inactive) | GI50 (SF-268): 5.38 µM (inactive) | GI50 (K562): 2.22 µM (inactive) | GI50 (Malme-3M): 1.93 µM (inactive) | GI50 (IGROV-1): 6.22 µM (inactive) | GI50 (MOLT-4): 2.69 µM (inactive) | GI50 (LXFL 529): 0.769 µM (active) | GI50 (KM-20L2): 14.5 µM (inactive) | GI50 (DMS-273): 2.67 µM (inactive) | GI50 (CAKI-1): 23.5 µM (inactive) | GI50 (M19-MEL): 0.184 µM (active) | GI50 (OVCAR-3): 0.995 µM (active) | GI50 (SR): 3.67 µM (inactive) | GI50 (SK-MEL-28): 13.6 µM (inactive) | GI50 (OVCAR-8): 2.16 µM (inactive) | GI50 (HCC 2998): 3.7 µM (inactive) | GI50 (ACHN): 8.71 µM (inactive) | GI50 (HOP-62): 8.97 µM (inactive) | GI50 (NCI-H460): 2.82 µM (inactive) | GI50 (HOP-92): 13.4 µM (inactive) | GI50 (SF-539): 2.63 µM (inactive) | GI50 (UACC-62): 1.89 µM (inactive) | GI50 (MCF7): 2.3 µM (inactive) | GI50 (M14): 2.24 µM (inactive) | GI50 (SN12C): 3.1 µM (inactive) | GI50 (SK-OV-3): 9.71 µM (inactive) | GI50 (NCI-H522): 2.62 µM (inactive) | GI50 (SK-MEL-2): 3.5 µM (inactive) | GI50 (NCI-H226): 8.22 µM (inactive) | GI50 (MDA-MB-435): 0.977 µM (active) | GI50 (BT-549): 11.7 µM (inactive) | GI50 (LOX IMVI): 1.96 µM (inactive) | GI50 (RPMI-8226): 1.48 µM (inactive)

CCOC(=O)C1Nc2ccccc2[C@H]2OCC[C@@H]12 (stereo not given in full)
GI50 (DLD-1): > 100 µM (inactive) | GI50 (EKVX): > 100 µM (inactive) | GI50 (KM12): > 100 µM (inactive) | GI50 (A549): > 100 µM (inactive) | GI50 (COLO 205): > 100 µM (inactive) | GI50 (RXF 393): > 100 µM (inactive) | GI50 (CCRF-CEM): > 100 µM (inactive) | GI50 (SNB-19): > 100 µM (inactive) | GI50 (HOP-18): > 100 µM (inactive) | GI50 (NCI-H23): > 100 µM (inactive) | GI50 (HCT-116): > 100 µM (inactive) | GI50 (SK-MEL-5): > 100 µM (inactive) | GI50 (SF-295): > 100 µM (inactive) | GI50 (UACC-257): > 100 µM (inactive) | GI50 (HCT-15): > 100 µM | GI50 (SNB-78): > 100 µM (inactive) | GI50 (SNB-75): > 100 µM (inactive) | GI50 (786-0): > 100 µM (inactive) | GI50 (HL-60): > 100 µM (inactive) | GI50 (SW-620): > 100 µM (inactive) | GI50 (A498): > 100 µM (inactive) | GI50 (TK-10): > 100 µM (inactive) | GI50 (OVCAR-4): > 100 µM (inactive) | GI50 (XF498): > 100 µM (inactive) | GI50 (U-251): > 100 µM (inactive) | GI50 (HT-29): > 100 µM (inactive) | GI50 (OVCAR-5): > 100 µM (inactive) | GI50 (SF-268): > 100 µM (inactive) | GI50 (K562): > 100 µM (inactive) | GI50 (Malme-3M): > 100 µM (inactive) | GI50 (IGROV-1): > 100 µM (inactive) | GI50 (MOLT-4): > 100 µM (inactive) | GI50 (KM-20L2): > 100 µM (inactive) | GI50 (DMS-273): > 100 µM (inactive) | GI50 (CAKI-1): > 100 µM (inactive) | GI50 (M19-MEL): > 100 µM (inactive) | GI50 (OVCAR-3): > 100 µM (inactive) | GI50 (SK-MEL-28): > 100 µM (inactive) | GI50 (OVCAR-8): > 100 µM (inactive) | GI50 (HCC 2998): > 100 µM (inactive) | GI50 (ACHN): > 100 µM (inactive) | GI50 (HOP-62): > 100 µM (inactive) | GI50 (NCI-H460): > 100 µM (inactive) | GI50 (SF-539): > 100 µM (inactive) | GI50 (UACC-62): > 100 µM (inactive) | GI50 (M14): > 100 µM (inactive) | GI50 (SN12C): > 100 µM (inactive) | GI50 (SK-OV-3): > 100 µM (inactive) | GI50 (NCI-H522): > 100 µM (inactive) | GI50 (SK-MEL-2): 0.0596 µM (active) | GI50 (NCI-H226): > 100 µM (inactive) | GI50 (LOX IMVI): > 100 µM (inactive)

O=C(Cc1ccc([N+](=O)[O-])c([N+](=O)[O-])c1CC(=O)C(=O)Nc1cc(Cl)ccc1Cl)C(=O)Nc1cc(Cl)ccc1Cl
GI50 (DLD-1): > 100 µM (inactive) | GI50 (EKVX): > 100 µM (inactive) | GI50 (KM12): > 100 µM (inactive) | GI50 (A549): > 100 µM (inactive) | GI50 (COLO 205): 22.9 µM (inactive) | GI50 (RXF 393): 30.8 µM (inactive) | GI50 (CCRF-CEM): 17.9 µM (inactive) | GI50 (SNB-19): > 100 µM (inactive) | GI50 (HOP-18): > 100 µM (inactive) | GI50 (NCI-H23): > 100 µM (inactive) | GI50 (DMS-114): 45.5 µM (inactive) | GI50 (HCT-116): > 100 µM (inactive) | GI50 (SK-MEL-5): > 100 µM (inactive) | GI50 (SF-295): > 100 µM (inactive) | GI50 (UACC-257): > 100 µM (inactive) | GI50 (HCT-15): 21.7 µM | GI50 (SNB-78): 80 µM (inactive) | GI50 (SNB-75): > 100 µM (inactive) | GI50 (UO-31): > 100 µM (inactive) | GI50 (786-0): > 100 µM (inactive) | GI50 (HL-60): > 100 µM (inactive) | GI50 (SW-620): 37.9 µM (inactive) | GI50 (A498): > 100 µM (inactive) | GI50 (TK-10): > 100 µM (inactive) | GI50 (OVCAR-4): > 100 µM (inactive) | GI50 (U-251): 24.2 µM (inactive) | GI50 (HT-29): > 100 µM (inactive) | GI50 (OVCAR-5): > 100 µM (inactive) | GI50 (SF-268): > 100 µM (inactive) | GI50 (K562): 33.5 µM (inactive) | GI50 (Malme-3M): > 100 µM (inactive) | GI50 (IGROV-1): > 100 µM (inactive) | GI50 (MOLT-4): 30 µM (inactive) | GI50 (LXFL 529): > 100 µM (inactive) | GI50 (KM-20L2): > 100 µM (inactive) | GI50 (DMS-273): 30.3 µM (inactive) | GI50 (CAKI-1): > 100 µM (inactive) | GI50 (M19-MEL): > 100 µM (inactive) | GI50 (OVCAR-3): > 100 µM (inactive) | GI50 (SR): > 100 µM (inactive) | GI50 (SK-MEL-28): > 100 µM (inactive) | GI50 (OVCAR-8): > 100 µM (inactive) | GI50 (HCC 2998): > 100 µM (inactive) | GI50 (ACHN): > 100 µM (inactive) | GI50 (HOP-62): > 100 µM (inactive) | GI50 (NCI-H460): 72.6 µM (inactive) | GI50 (HOP-92): > 100 µM (inactive) | GI50 (SF-539): > 100 µM (inactive) | GI50 (UACC-62): > 100 µM (inactive) | GI50 (M14): > 100 µM (inactive) | GI50 (SN12C): 59.8 µM (inactive) | GI50 (SK-OV-3): > 100 µM (inactive) | GI50 (SK-MEL-2): > 100 µM (inactive) | GI50 (NCI-H226): 82.2 µM (inactive) | GI50 (LOX IMVI): 26.2 µM (inactive) | GI50 (RPMI-8226): 28 µM (inactive)
